For 1 compound, IC50 results are on record in ChEMBL document CHEMBL1201861, “Genomics of Drug Sensitity in Cancer screening data, Wellcome Trust Sanger Institute”.

Some results are limits rather than exact numbers.

In one experiment the test system is LB373-MEL-D. As to the kind of experiment: cells. In kind it is functional, cell-based, Homo sapiens. The settings on record: Homo sapiens, LB373-MEL-D.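 Also: growth inhibition of the cell line, read out in a cell viability assay.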
The test system of the next experiment is NCI-H1436. Description: cells. The settings on record: Homo sapiens, NCI-H1436. In kind it is functional, cell-based, Homo sapiens.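 Also: growth suppression of human NCI-H1436 cells, determined with a cell viability readout.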
For a further experiment, the system named is SR. As to the kind of experiment: cells. In kind it is functional, cell-based, Homo sapiens. The settings on record: Homo sapiens, SR.
A further experiment relates to NB7. Description: cells. In kind it is functional, cell-based, Homo sapiens. The settings on record: Homo sapiens, NB7.
A further experiment concerns NCI-H1882. Description: cells. In kind it is functional, cell-based, Homo sapiens. The settings on record: Homo sapiens, NCI-H1882.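 Also: growth inhibition of the cell line, determined with a viability assay.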
The test system of the next experiment is LB647-SCLC. As to the kind of experiment: cells. In kind it is functional, cell-based, Homo sapiens. The settings on record: Homo sapiens, LB647-SCLC.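 Also: cell growth inhibition, read out by a viability assay.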
The subject of the next experiment is K052. As to the kind of experiment: cells. Type of experiment: functional, cell-based, Homo sapiens. The settings on record: Homo sapiens, K052.
In a further experiment the test system is ST486. As to the kind of experiment: SANGER: Inhibition of human ST486 cell growth in a cell viability assay. Type of experiment: functional, cell-based. The settings on record: Homo sapiens, ST486.
Another experiment deals with NCI-H1522. As to the kind of experiment: cells. Type of experiment: functional, cell-based, Homo sapiens. The settings on record: Homo sapiens, NCI-H1522.
The test system of a further experiment is EW-24. Description: cells. Type of experiment: functional, cell-based, Homo sapiens. The settings on record: Homo sapiens, EW-24.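 Also: human EW-24 cancer cell line, growth inhibition read out via a cell viability assay.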
A further experiment deals with CESS. As to the kind of experiment: SANGER: Inhibition of human CESS cell growth in a cell viability assay. The settings on record: Homo sapiens, CESS. In kind it is functional, cell-based.
The subject of the next experiment is BL-70. As to the kind of experiment: SANGER: Inhibition of human BL-70 cell growth in a cell viability assay. The settings on record: Homo sapiens, BL-70. In kind it is functional, cell-based.
Another experiment has as its system IST-SL2. Description: cells. In kind it is functional, cell-based, Homo sapiens. The settings on record: Homo sapiens, IST-SL2.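 Also: growth inhibition of human IST-SL2 cells, read out by a cell viability assay.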
Another experiment deals with NCI-H2141. Description: cells. The settings on record: Homo sapiens, NCI-H2141. In kind it is functional, cell-based, Homo sapiens.
Another experiment relates to NCI-H322M. Description: cells. The settings on record: Homo sapiens, NCI-H322M. In kind it is functional, cell-based, Homo sapiens.
The subject of another experiment is KARPAS-422. Description: cells. In kind it is functional, cell-based, Homo sapiens. The settings on record: Homo sapiens, KARPAS-422.
The test system of another experiment is NCI-H187. As to the kind of experiment: cells. Type of experiment: functional, cell-based, Homo sapiens. The settings on record: Homo sapiens, NCI-H187.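 Also: growth inhibition of NCI-H187 cells, read out as cell viability.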

Description for EW-24: SANGER: Inhibition of human EW-24 cell growth in a cell viability assay.
Description for IST-SL2: SANGER: Inhibition of human IST-SL2 cell growth in a cell viability assay.
Description for K052: SANGER: Inhibition of human K052 cell growth in a cell viability assay.
Description for KARPAS-422: SANGER: Inhibition of human KARPAS-422 cell growth in a cell viability assay.
Description for LB373-MEL-D: SANGER: Inhibition of human LB373-MEL-D cell growth in a cell viability assay.
Description for LB647-SCLC: SANGER: Inhibition of human LB647-SCLC cell growth in a cell viability assay.
Description for NB7: SANGER: Inhibition of human NB7 cell growth in a cell viability assay.
Description for NCI-H1436: SANGER: Inhibition of human NCI-H1436 cell growth in a cell viability assay.
Description for NCI-H1522: SANGER: Inhibition of human NCI-H1522 cell growth in a cell viability assay.
Description for NCI-H187: SANGER: Inhibition of human NCI-H187 cell growth in a cell viability assay.
Description for NCI-H1882: SANGER: Inhibition of human NCI-H1882 cell growth in a cell viability assay.
Description for NCI-H2141: SANGER: Inhibition of human NCI-H2141 cell growth in a cell viability assay.
Description for NCI-H322M: SANGER: Inhibition of human NCI-H322M cell growth in a cell viability assay.
Description for SR: SANGER: Inhibition of human SR cell growth in a cell viability assay.

Consider `COc1ccc(N(C(=O)Oc2c(C)cccc2C)c2ccnc(Nc3ccc(N4CCN(C)CC4)cc3)n2)c(OC)c1`, for which the IC50 with LB373-MEL-D, in the experiment on NCI-H1436, in the experiment with SR, with NB7, with NCI-H1882 and with LB647-SCLC was > 5.12 µM throughout. The IC50 with K052 was > 5.12 µM; in the experiment on ST486, > 5.12 µM; with NCI-H1522, > 5.12 µM; with EW-24, > 5.12 µM; with CESS, > 5.12 µM; in the experiment on BL-70, < 20 nM. The IC50 in the experiment with IST-SL2 is 1470 nM; in the experiment on NCI-H2141, > 5.12 µM; with NCI-H322M it was > 5.12 µM; with KARPAS-422, > 5.12 µM; in the experiment with NCI-H187, > 5.12 µM.

By IC50 is commonly meant the concentration that inhibits the measured activity by half. The low end stands for inhibition by little substance, the high end for a need for much substance.
